Assay results reported in US7468186B2, “Polyomavirus cellular epitopes and uses therefor” (priority 2005, dated 2008).
Values joined by “and” are separate entries in the source; they are usually repeats but may differ in a detail not shown here. Equal values may be shown once. Ends that are not written are not given here.

How the values were obtained:
[1] = system: splenocytes (CD8+ T cells); assay type: cell-based, HHD-II transgenic mice
[2] = system: Jurkat A2.1 cells pulsed with peptide
[3] = system: CD8+ T lymphocytes of PBMC; test: In vitro stimulation of human PBMC with peptide and rIL-2, then tetramer reagent labeling and flow analysis
HLA-A*02 = molecular target: T1, HLA-A*02 (Homo sapiens, UniProt P04439, D140Y/D185E/D98H/E176V/E277Q/G131W/G231S/I119V/I121R/I166T/I218V/L300P/L318F/N151K/N90K/P208A/P217A/Q86G/Q94H/R138H/R169H/T345S); test: T2 stabilization/HLA-A*02 binding assay (flow cytometry of surface HLA-A2 on peptide-pulsed T2 cells); conditions: peptide-pulsed TAP-deficient T2 cells, FIG. 1
T1 construct: Levels of surface HLA-A2 were measured by staining peptide-pulsed T2 cells with a fluorescent-labeled antibody to HLA-A2; endogenous in cells; host or cells: T2 cells (TAP-deficient)

[4] = IVS with BKVp44, healthy HLA-A2 donors
[5] = healthy HLA-A2 volunteers, summary of Table IV
[6] = IVS with JCVp100, healthy HLA-A2 donors
[7] = kidney transplant patient KTx#02 PBMC, two weeks with peptide and IL-2, percentage of CD8+ lymphocytes, FIG. 12

Sequence: ILKEPVNGV [control HIV peptide]
- cells producing IFN-γ in response to peptide [1]: 1.94% and 3.2%
- proportion of cells responding with IFN-γ production [1]: 0.35%

Sequence: LLMWEAVTV [BK108]
- result of cytotoxicity and ICC assays [2]: positive results

Sequence: SITEVECFL [JC36]
- recognition by transgenic murine CTL expanded with BK44 [2]: recognized

Sequence: AITEVECFL (Polyomavirus hominis 1) [BK44]
- IFN-γ secretion by CD8+ cells on peptide stimulation [1]: induced the secretion of IFN-γ by CD8^+ cells
- BOTH (tetBKVp44 and tetJCVp36) ([3]; IVS with BKVp44, double tetramer labeling): 1.79 and 0.02 and 5.7 and 0 (8×) and 0.17 and 13.2 and 2.63 and 3.38 and 0.1 and 6.1
- % tetBKVp44 [3, 4]: 1.89% and 0% (5×) and 6.2% and 0.33% and 0.13% and 14.7% and 3.14% and 3.78% and 0.1% and 0.07% and 6.7% and 0.01% and 0.63%
- % tetJCVp36 [3, 4]: 1.72% and 0.01% and 6.6% and 0% (4×) and 0.7% and 0.08% and 0.04% and 15% and 3.07% and 3.65% and 0.1% and 0.07% and 6.2% and 0.05%
- individuals with cells positively stained by the BK44 tetramer reagent after in vitro stimulation [3, 5]: 8 of 17
- individuals with cells positively stained by the JC36 tetramer reagent after in vitro stimulation [3, 5]: 8 of 17
- recognition by transgenic murine CTL expanded with BK44 [2]: recognized

Sequence: LLIKGGVEV (Polyomavirus hominis 1) [BK27b]
- HLA-A2 binding (increase in relative fluorescence intensity on T2 cells) (HLA-A*02): highest binding function

Sequence: NLLMWEAVTV [BK107]
- result of cytotoxicity and ICC assays [2]: positive results

Sequence: ILMWEAVTL [JC100]
- cells producing IFN-γ in response to peptide [1]: 17.29% and 22.2%
- BOTH (tetBKVp108 and tetJCVp100) ([3]; IVS with JCVp100, double tetramer labeling): 0 (6×) and 0.26 and 5.17 and 0.04 and 4.3 and 0.9
- % tetBKVp108 [3, 6]: 0.04% (2×) and 0.05% and 0% (9×) and 0.16% and 0.06% and 0.48% and 4.59% and 0.13% and 5.1% and 0.03% and 0.8%
- % tetJCVp100 [3, 6]: 0.02% and 0% (11×) and 0.28% and 0.59% and 3.5% and 0.09% and 1.36% and 5.1% and 0.08% and 1.05%
- individuals positive for staining with the BK108 tetramer reagent after in vitro stimulation [3, 5]: 5 of 20
- tetramer reagent binding cells that bound both the BKV and JVC tetramer reagents ([3]; kidney transplant patient KTx#02 PBMC after in vitro stimulation, FIG. 13): 63%
- cells binding the BKV tetramer reagent after in vitro stimulation [3, 7]: 4.4%
- cells binding the JVC tetramer reagent after in vitro stimulation [3, 7]: 3.7%
- recognition by transgenic murine CTL expanded with BK108 [2]: recognized
